For data set [1], the system named is mutant sequence incapable of G4 formation. Type of data set: biochemical. To be noted: concentrations up to 100 μM.
The subject of data set [2] is c-MYC exon 1 transcription in CA46 cells. As to the kind of experiment: Exon specific qPCR assay, exon 1. Type of data set: cell-based, human. To be noted: 10 μM, up to 48 hours. An excerpt: (§1) To confirm a G4 specific mechanism of action in cells, the CA46 Burkitt's Lymphoma line was used in an exon-specific assay, as previously reported (Boddupally, et al., J Med Chem 2012, 55, 6076). For most cell lines, 85-90% of c-Myc expression is controlled by the G4 located prior to exons 1 and 2 in the promoter. Furthermore, expression predominantly occurs following exon 2, due to a thousand-fold increase in transcription from this allele (Brown, et al., J Biol Chem 2011, 286, 41018). The CA46 Burkitt's Lymphoma cell line is an exception to this trend due to the existence of a chromosome (8:14) (Pelicci, et al., Proc Natl Acad Sci USA 1986, 83, 2984) translocation between exons 1 and 2, leaving exon 1 under G4 control. As a result, c-Myc expression from exon 2 is G4 independent (FIG. 3B). This renders the overall cell line resistant to G4-mediated c-Myc inhibition at the RNA and protein level, and proliferation should be uninhibited by G4-stabilizing agents.
(§2) CA46 cells were treated with ligands of interest or DMSO control at designated time points, washed in PBS, flash frozen, and RNA isolated using the Qiagen RNeasy Kit. RNA was quantified by NanoDrop, and 0.5 μg was reverse transcribed for use in qPCR. […]

Data set [3] has as its system c-MYC exon 2 transcription in CA46 cells. The data set can be described thus: Exon specific qPCR assay, exon 2. To be noted: 10 μM, up to 48 hours. In kind it is cell-based, human.
From the text: as §1, §2
(In qPCR the cycle at which signal appears reflects the starting amount.)

The test system of data set [4] is c-Myc transcription. The data set can be described thus: c-Myc transcription in myeloma cells (qPCR). Type of data set: cell-based, human. To be noted: 10 μM, after 24 hours. As to the method: (§3) Since two thirds of multiple myeloma cases involve deregulated c-MYC expression (Kuehl and Bergsagel, Blood 2012, 120, 2351; Shou, et al., Proc Natl Acad Sci USA 2000, 97, 228), we elected to evaluate the cell viability effects of Compound 1 in a multiple myeloma model. […] This suppression was maintained over 72 hours, which is notable given the characteristic rapid replenishment of the protein—a phenomenon that complicates targeting c-Myc at the protein level (FIG. 4C). This effect was maintained across a genetically diverse set of 4 multiple myeloma lines. We observed decreases in c-MYC translation in all lines tested, and this effect also correlated with decreases in viability (FIG. 4D).

In data set [5] the test system is c-Myc protein. As to the kind of experiment: c-Myc protein translation in myeloma cells (Western blot). Conditions: 10 μM, maintained over 72 hours. In kind it is cell-based, human. How it is done: as §3
Cell pellets/tissue were homogenized and lysed in RIPA buffer on ice for 1 h. Protein was quantitated by BCA, and equal protein was loaded onto 4-12% Bis-Tris Gels (Novex), electrophoresed at 150 V for 75 min to obtain sufficient separation, and transferred via the iBlot system (Life Technologies). Successful transfer and uniform loading was confirmed by Ponceau S staining (Thermo Scientific). Blots were blocked in 10% dry milk in TBST, incubated with primary monoclonal antibodies in 5% BSA at concentrations designated by the manufacturer, and gently rotated at 4° C. overnight. […]
A general note: In western blotting, separated proteins are transferred to a membrane and probed.

For data set [6], the system named is c-MYC expression in CA46 cells. The data set can be described thus: c-MYC expression in CA46 Burkitt's Lymphoma line. To be noted: CA46 line lacking G4 control. Type of data set: cell-based, human.
From the text: as §1, with “agents. […]” for “agents.”
Cell pellets/tissue were homogenized and lysed in RIPA buffer on ice for 1 h. Protein was quantitated by BCA, and equal protein was loaded onto 4-12% Bis-Tris Gels (Novex), electrophoresed at 150 V for 75 min to obtain sufficient separation, and transferred via the iBlot system (Life Technologies). […]

Data set [7] relates to peripheral blood mononucleocytes. As to the kind of experiment: Viability of peripheral blood mononucleocytes. Type of data set: cell-based. Conditions: healthy volunteer cells; doses 25% higher than for cell treatments. How it is done: as §3
Data set [8] deals with myeloma cells. As to the kind of experiment: Apoptosis (Annexin V/7-AAD staining, FACS). In kind it is cell-based, human. Conditions: 10 μM, 72 h. How it is done:
To further explore the mechanism of action for the anticancer activity of Compound 1, cell cycle analysis was performed and monitored for potential induction of apoptotic death. […] Additionally, minimal increases in apoptosis were observed, by Annexin V/7-AAD staining and FACS analysis; only 13% of the cells were undergoing apoptosis (FIG. 5B).

Data set [9] deals with c-Myc protein in H1299 cells. As to the kind of experiment: c-Myc protein expression by Western blot, H1299. In kind it is cell-based, human. To be noted: 10 μM. How it is done:
The effect of Compound 23 on the expression of c-Myc protein in the human lung cancer cell lines H1299 and H157 was also assayed. H1299 and H157 cells were treated with 10 μM Compound 23 and c-Myc protein expression levels quantified by Western blot. In Compound 23-treated H1299 cells, c-Myc protein expression levels were approximately 55% compared to untreated control cells. In Compound 23-treated H157 cells, c-Myc protein expression levels were approximately 74% compared to untreated control cells.

A short description of data set [10]: Pharmacokinetic evaluation, blood plasma levels by mass spectrometry. Type of data set: in vivo. To be noted: single injection 19 mg/kg, female nude mice; for Tmax / half-life: mouse. How it is done: The blood plasma levels of Compound 23 after a single IP or IV injection (19 mg/kg) in female nude mice were determined by mass spectrometry (see FIG. 12 and the following table).

The structures appear in SMILES notation. “Also recorded” adds a separate entry of the source.

`Cc1ccc(NC(=O)c2c(C)oc3ccc(O)c(CN4CCCCCC4)c23)cc1` [Compound 1]: in data set [1], the “effect on PCR amplification” value was “no effect”. Also, the “transcription from exon 1” value in data set [2] was “sustained downregulation”. In [3], the “transcription from exon 2” value is “unaffected”. The “decrease in c-Myc transcription” value in data set [4] was “seven-fold decrease”. The c-Myc protein translation result in data set [5] is recorded as “significantly inhibited”. Besides, in data set [6], the “c-MYC expression / protein translation” value is given as “resistant to inhibition of c-Myc protein translation; also recorded: negligible changes”. The viability result in [7] is “did not alter viability”. In data set [8], this compound showed a cells undergoing apoptosis of 13%.
The Tmax is the time at which the peak concentration occurs. One may read the half-life as the time needed for the level to fall by half in the phase considered. As for `Cc1oc2ccc(O)c(CN3CCCCCC3)c2c1C(=O)Nc1ccc(C(F)(F)F)cc1` [Compound 23], the “c-Myc protein expression levels compared to untreated control cells” value in data set [9] is on record as “approximately 55%”. In addition, in [10] (IP), the Kel stood at 0.277 h⁻¹, the Tmax was determined as 1 h and the half-life is 6.5 h. In data set [10] (IV), the Kel was 0.277 h⁻¹, the Tmax came to 0.38 h and the half-life is 2.25 h.

The record behind these values is US11014902B2, “MYC G-quadruplex stabilizing small molecules and their use” (The United States of America, as represented by the …, priority 2015, dated 2021).
